The test system of series [1] is PAR2. Kind of series: PAR2 mRNA expression (qPCR) in LPS-stimulated THP-1 cells. It counts as cell-based, human. The procedure: (§1) In order to evaluate the effect of 1-Piperidin Propionic acid on the transcriptional activity of the membrane receptor Protease Activated Receptor-2 (PAR2), monocyte-derived cell line THP-1 was used. The cells were incubated with LPS, known to induce PAR2 expression in this cell compartment, at a concentration of 1 ng/ml, or with medium alone, as a control, for 2 hours with 1-PPA at a concentration of 1 ng/ml and 100 ng/ml. In further experiments transfected HepG2 cells were used transiently with plasmid containing the human PAR2 sequence by Lipofectamy. These cells were incubated with medium alone, as a control, or with increasing concentrations of 1-PPA, as described above. Cell extracts from both lines were then subjected to extraction of cellular RNA which was reverse transcribed into cDNA and amplified by qPCR.
(§2) Similar results were also obtained in transfected HepG2 cells transiently to overexpress PAR2.
(In general: Real-time PCR tracks product formation cycle by cycle.)

For series [2], the system named is PAR2. Kind of series: PAR2 mRNA expression (qPCR) in HepG2 cells transiently transfected to overexpress PAR2. It counts as cell-based, human. The procedure:
as §1, §2

The subject of series [3] is PAR2. Kind of series: Cellular Thermal Shift Assay (CETSA) and Western blot in lysates of HepG2 cells overexpressing PAR2. To be noted: soluble fraction of extracts of HepG2 overexpressing PAR2, progressive increase in temperature. It counts as binding, human. The text has this: These interaction data between 1-PPA and PAR2 were also confirmed at the protein level, using the cellular thermal shift assay (CETSA) (Science 341 (6141): 84-87). This is a biophysical assay based on the principle of ligand-induced thermal stabilization of target proteins, as the melting temperature of proteins changes according to the interaction of the ligand.
This conformation was identified as level class 0, which is the highest scoring and most reliable analysis. […] In particular, HepG2 cells have been genetically modified to overexpress transiently PAR 2 using cDNA as expression plasmid 3.1. The soluble fraction of the cell extracts was then subjected to the CETSA test, in the presence or absence of 1-PPA, according to the protocol. The samples were also studied by Wester blot using an anti HA-tag PAR 2 monoclonal antibody.
In general terms: In western blotting, separated proteins are transferred to a membrane and probed.

The next series has as its system TNF-α. Kind of series: LPS-induced TNF-α transcriptional expression in THP-1 cells (RT-PCR). It counts as cell-based, human. The procedure: (§3) Given that PAR2 is deeply implicated in the induction of proinflammatory cytokines, the ability of PPA in the inhibition of proinflammatory cytokines in a context simulating bacterial sepsis was evaluated. In FIGS. 3A and 3B the THP-1 cell line of monocytic origin was used, incubated with LPS ([…]), which in example 1 had induced an increase in the synthesis of endogenous PAR2. Cells were simultaneously treated with 1-PPA at a concentration of 1 ng/ml or 100 ng/ml or medium alone as control and incubated for 1 or 4 hours. The cell extracts were used to analyze the transcriptional expression of the cytokines TNF-α and IL-1β by RT-PCR.

A further series concerns IL-1β. The series is described as follows: LPS-induced IL-1β transcriptional expression in THP-1 cells (RT-PCR). It counts as cell-based, human. The procedure: as §3
The subject of a further series is platelet aggregation. Kind of series: Platelet aggregation, TRAP test, Multiplate analyzer, whole blood. It counts as cell-based. To be noted: TRAP-6, increasing concentrations of 1-PPA. The source says:
The analysis of platelet function can be performed by the Multiplate® analyzer (Roche Diagnostics) which is a method based on impedance aggregometry and can be used to measure platelet function in whole blood in the presence or absence of inhibitors. In particular the TRAP test is an assay for the in vitro quantitative determination of platelet function triggered by thrombin receptor activating peptide-6 (TRAP-6) which is a potent platelet activator and stimulates platelet aggregation through the thrombin receptor PAR-1, this peptide has also been found capable of activating PAR2 (Cas #AS-24190-25, CliniScience), which can be activated by thrombin in the presence of thrombomodulin (Heuberger et al, Thrombosis Research 2019, 177:91-101).
Multiplate® Analyzer, Roche Diagnostics) was used, where the blood sample was analyzed alone or in presence of increasing concentrations of 1-PPA.

Another series has as its system gouty arthritis. Kind of series: Mouse model of gouty arthritis (uric acid microcrystals in hind paw). It counts as in vivo, mice (C57BL6J). The text has this:
To evaluate the inhibitory capacity of 1-PPA in pain perception, notoriously mediated by PAR2 as a receptor of peripheral nerve endings (Andrea S. Rothmeier & Wolfram Ruf. Semin Immunopathol, 2012; 34:133-149), an experimental model of inflammatory arthritis was used. In particular, a mouse model of gout was used by injecting microcrystals of uric acid subcutaneously into the plantar surface of the hind legs of mice (C57BL6J), followed by injection of 1-PPA at different concentrations in one hind leg, using the contralateral leg as a control. After a few hours, the microcrystal treatment induces swelling and edema at the injection site which reaches a peak of inflammation and pain at 48 hours and then resolves spontaneously.
To evaluate the intensity of pain, the electronic von Frey test was used, which involves recording the intensity of the stimulus that evokes a withdrawal reflex, after the application of the pain stimulus to the plantar surface of the hind leg.

The next series concerns LPS-induced sepsis. Kind of series: LPS-induced systemic sepsis model in mice. The settings on record: LPS about 10 mg/kg intraperitoneal. It counts as in vivo, C57BL/6 J mice. How it is done:
In vivo experiments are underway on models of systemic sepsis, in order to validate the protective effect of 1-PPA against the development of cytokine storm and septic shock with multiple organ failure, using C57BL/6 J mice. The first part of the study consists in the induction of sepsis through LPS and experimental treatment with 1-PPA.
The intraperitoneal administration with LPS (about 10 mg/kg, L4130, Sigma-Aldrich) associated with 1-PPA or alternatively with PBS, was carried out under anesthesia (Sevorane at 4% in medical oxygen) through the use of Fluovac (Harvard Instruments), dedicated for the anesthesia of small animals.
The time interval of 8 hours is considered the optimal interval for observing the onset of scientifically quantifiable sepsis in mice, and for evaluating the efficacy of a treatment aimed at inhibiting it by administering 1-PPA.
FIG. 6A illustrates the experimental design and the quantification of the degree of malaise using a score commonly used to determine the condition of the animal, where 0 refers to the normal condition and 5 refers to a pre-terminal condition. A score of 6 was attributed to the death of the animal.

In a further series the test system is HepG2 cell line. The series is described as follows: In vitro toxicity, real-time cell proliferation (XCelligence) in HepG2. It counts as cell-based. The source says: Real-time cell proliferation was monitored using the XCelligence tool (ACEA) and the results were expressed as Cell Index, which expresses the cell number at each point considered.
A short description of series [4]: In vivo organ damage (liver, kidney) after 26 weeks of 1-PPA. Details: species or system CC57/BL6 mice. To be noted: 0.07 and 0.7 μg/g/week, normal diet, serum. The procedure: The organ damage of the 1-PPA compound in vivo was also evaluated, considering the function of the liver and kidney, the main organs responsible for pharmacological catabolismln detail, the study included 2 groups of CC57/BL6 mice (4 mice/group, age 45 days), inoculated with 1-PPA at concentrations of 0.07 and 0.7 μg/g/week), for a time period of 26 weeks. All animals were fed a normal diet throughout the study. Before starting the 1-PPA inoculation, a basal blood sample was taken from all animals and a second sample was taken from the sacrifice.
At serum level, alanine aminotransferase (ALT) as an indicator of hepatic cytolytic damage, bilirubin as an indicator of hepatic cholestasis, blood urea nitrogen (Blood urea nitrogen, BUN) as an indicator of renal damage were evaluated. The results were expressed as the ratio between the value of the final sampling and that of the basal sampling.

Another series concerns chronic kidney disease. The series is described as follows: CKD induced by folic acid and treatment with 1-PPA. It counts as in vivo, mouse. The settings on record: FA 125 mg/kg i.p., 1-PPA i.p. 0.1 μg/g from third day, thirtieth day, expected. The procedure:
A single intraperitoneal injection of FA (dosage of 125 mg/kg) induces renal damage which reproduces the analogous syndrome in man after 30 days. To ensure maximum precision and least distress for the animal, the 1-PPA inoculation is performed by anesthetizing the mouse for a few minutes using deep inhalation surgical anesthesia using 4% Sevorane in medical oxygen administered through a Fluovac device (Harvard Instruments) specifically dedicated to the anesthesia of laboratory rodents.
Treatment with 1-PPA (i.p. injection at a concentration of 0.1 μg/g of body weight) begins from the third day after the induction of renal damage (groups FA+1-PPA). Control groups are treated with PBS (FA+PBS groups).
Renal function is monitored weekly by semiquantitative evaluation of proteinuria using multistix (Siemens). For urine collection, the […] is placed in a carefully cleaned plexiglass tray, in the presence of dedicated environmental enrichment. After 30 days from the induction of the renal damage the animals are sacrificed by cervical dislocation or excess anesthesia. Peripheral blood is collected by intracardiac puncture, and kidneys and liver are sampled in formalin and at −80° C. for subsequent evaluations of IHC and gene expression. […]

Setting [5] is: THP-1, 1-PPA 1 ng/ml or 100 ng/ml, 1 or 4 hours.

For the compound `O=C(O)CCN1CCCCC1` [1-PPA, 1-Piperidine Propionic Acid], the “PAR2 mRNA expression” value was “marked reduction of its expression” in the series on PAR2 [1] (THP-1 cells, LPS 1 ng/ml, 2 hours, 1-PPA 1 ng/ml and 100 ng/ml); “effective inhibition of PAR2 mRNA” in the series on PAR2 [2] (HepG2 transiently transfected with human PAR2 plasmid, increasing concentrations of 1-PPA). The “concentration capable of inhibiting the synthesis of PAR2” value with PAR2 [1] (THP-1 line, PAR2 overexpression conditions) came to 1 ng/mL; in the series with PAR2 [2] (HepG2 line, PAR2 overexpression conditions) it was 1 ng/mL. Besides, the “thermal stabilization of PAR2 protein (CETSA)” value in the series with PAR2 [3] is given as “thermal stability of the PAR2 protein”. For the same compound, the “TNF-α transcriptional expression induced by LPS” value in the series with TNF-α (setting [5]) is “effectively blocked”. The “concentration at which inhibitory effect is achieved” value came to 1 ng/mL in the series on TNF-α (THP-1, LPS) and 1 ng/mL in the series with IL-1β (THP-1, LPS). For the same compound, the “IL-1β transcriptional expression induced by LPS” value in the series on IL-1β (setting [5]) is reported as “effectively blocked”. In the series with IL-1β (lowest 1-PPA concentration (1 ng/ml), persisting LPS induction), the “control of IL-1β synthesis over time” value was “still more effective in controlling the synthesis”. The platelet aggregation entry in the series on platelet aggregation was “inhibiting platelet aggregation in a dose-dependent manner”. In addition, the “stimulus to induce the withdrawal reflex (electronic von Frey test)” value in the series with gouty arthritis (compared to mice injected only with microcrystals) is on record as “significantly greater stimulus”. Also, in the series with gouty arthritis (urate microcrystals subcutaneously in plantar surface, 1-PPA injected in hind leg, versus not treated), the “paw edema and redness (confirmed by paw circumference)” value is “visually less edematous and reddened”. Further, the “degree of malaise score (0 normal, 5 pre-terminal, 6 death)” value with LPS-induced sepsis (1-PPA 3 μg, maximum reached) is not above 2. Further, the “protection from LPS-induced sepsis” value in the series with LPS-induced sepsis (low concentrations of 1-PPA) is reported as “protected mice from LPS-induced sepsis”. For the same compound, in the series on HepG2 cell line (5 μg/ml versus biologically effective dose), the “non-toxic concentration relative to biologically effective dose” value is “at least 50 times”. In addition, in the series on HepG2 cell line (HepG2, 5 μg/ml), the “cellular toxic effect (Cell Index)” value is reported as “did not demonstrate a cellular toxic effect”. In addition, in [4], the “alanine aminotransferase (ALT), ratio final/basal sampling” value is less than 2 ×normal values. Besides, the “bilirubin, ratio final/basal sampling” value in [4] is given as less than 2 ×normal values. Moreover, in series [4], the “blood urea nitrogen (BUN), ratio final/basal sampling” value is given as less than 2 ×normal values. Further, in the series with chronic kidney disease, the “mean value of proteinuria measured in the urine” value was “moderate residual damage”.

The values are drawn from US20260014132A1, “PROTEASE ACTIVATED RECEPTOR 2 (PAR2) INHIBITOR AND ITS USES” (UNIVERSITÀ DEGLI STUDI DI PADOVA, priority 2022, published 2026).
